Source: US4025644A, “Tyrosine derivatives and use” (Daiichi Seiyaku Co., Ltd., priority 1974, dated 1977)
Peptide text beside a SMILES is read from it. * marks the point of attachment. Bz = O=C(c1ccccc1)*

Legend:
[1] = test system: acetic acid ulcers in rats; assay: Anti-ulcerous effect on acetic acid-induced experimental gastric ulcers in rats (oral for 13 days from the day after ulceration), Table I; format: in vivo, Donryu-strain male rats; conditions: relative to glutamine
Source text: The anti-ulcerous effects of the object compounds of this invention have been confirmed in tests on ulcers in rats. The ulcers were produced according to the method of K. Takagi, S. Okabe and R. Saziki, by the effect of acetic acid on the digestive organs (Japanese Journal of Pharmacology vol. 19 pages 418-426 (1969), Yakkyoku vol. 25 pages 1453-1459 (1974) and Experientia vol. 27 pages 146-148 (1971). It is known that this experimental ulcer resembles human peptic ulcers with respect to the overall and histological findings and as to the recovery process. The experimental details confirming the anti-ulcerous effect are as follows.
Donryu-strain male rats having a body weight -- 230-270g (ten rats to a group) were not fed for 24 hours and then were anesthesized with ether. A laparotomy was performed. The stomach was exposed and 0.05 ml of 10% acetic acid was injected into the subserosal layer in the glandular part of the anterior wall to produce the experimental ulcers. The abdomen was then closed. Beginning on the day after the ulceration, the compounds of this invention were orally administered to the rats for 13 days. The rats were fed normally and sacrificed on the 15th day after the ulcer formation. The size of the ulcer (length and width) in the glandular part of the stomach was measured and the product of the length and width was used as the ulcer index (UI). The curative ratio (%) was calculated from the ulcer index of the rats which were medicated as compared with the index of the control group. [formula]
For the purpose of comparing the effects with those of known drugs, the therapeutic effects of the compounds of this invention, tyrosine itself and gefarnate relative to those of glutamine were calculated and are listed in Table I. Of these compounds, gefarnate (geranyl farnesylacetate,U.S. Pat. No. 3,154,570 (1964) and glutamine are known anti-ulcerous drugs.

[2] = Acute toxicity, oral, mice; conditions: in vivo, mouse p.o.
[3] = test system: chronic acetic acid ulcers in rats; assay: Anti-ulcerous effect on chronic acetic acid ulcers in rats (oral, 41st to 54th day after ulceration), Table II; format: in vivo; conditions: 14 days, relative to glutamine
Protocol: Donryu-strain male rats having a body weight -- 230-270g (ten rats to a group) were not fed for 24 hours and then were anesthesized with ether. A laparotomy was performed. The stomach was exposed and 0.05 ml of 10% acetic acid was injected into the subserosal layer in the glandular part of the anterior wall to produce the experimental ulcers. The abdomen was then closed. […] […] The size of the ulcer (length and width) in the glandular part of the stomach was measured and the product of the length and width was used as the ulcer index (UI). The curative ratio (%) was calculated from the ulcer index of the rats which were medicated as compared with the index of the control group. [formula] Acetic acid ulcers in rats are known to undergo partial healing and re-ulceration so that these ulcers resemble human chronic ulcers, both histologically and functionally. In order to examine the anti-ulcerous effects on chronic ulcers, the compounds of this invention were orally administered to rats for 14 days, from the 41st day to the 54th day after ulceration with acetic acid. On the 55th day, the rats were sacrificed and the size of the ulcer was measured. The procedure used in ulceration and in the determination of effects are the same as those described hereinbefore.

## COc1ccc(C(=O)N[C@H](CO)Cc2ccc(O)cc2)cc1
[1]; 200 mg/kg/day
  Relative therapeutic effect: 1.76
[2]
  LD50: > 4000 mg/kg

## COc1ccccc1C(=O)N[C@H](CO)Cc1ccc(O)cc1
[1]; 200 mg/kg/day
  Relative therapeutic effect: 1.29

## COc1cc(C(=O)N[C@H](CO)Cc2ccc(O)cc2)cc(OC)c1OC
[1]; 200 mg/kg/day
  Relative therapeutic effect: 1.43
[2]
  LD50: > 4000 mg/kg

## Nc1ccc(C(=O)N[C@H](CO)Cc2ccc(O)cc2)cc1
[1]; 200 mg/kg/day
  Relative therapeutic effect: 1.24

## Cc1ccc(COC(=O)N[C@H](CO)Cc2ccc(O)cc2)cc1
[1]; 200 mg/kg/day
  Relative therapeutic effect: 1.81
[2]
  LD50: > 4000 mg/kg

## O=C(N[C@H](CO)Cc1ccc(O)cc1)OCc1ccc(F)cc1
[1]; 200 mg/kg/day
  Relative therapeutic effect: 1.14

## O=C(N[C@H](CO)Cc1ccc(O)cc1)OCc1ccc(Cl)cc1
[1]; 200 mg/kg/day
  Relative therapeutic effect: 0.81

## O=C(N[C@H](CO)Cc1ccc(O)cc1)OCC1CCCCC1
[1]; 200 mg/kg/day
  Relative therapeutic effect: 1.60

## COc1ccc(C(=O)N[C@@H](Cc2ccccc2)C(=O)N[C@@H](Cc2ccc(O)cc2)C(=O)O)cc1 [Compound (II) R3 =CH3 O, N-(4-methoxybenzoyl)-phenylalanyltyrosine]
[3]; 50 mg/kg/day
  Relative therapeutic effect: 7.85
[2]
  LD50: > 4000 mg/kg

## O=C(N[C@@H](Cc1ccccc1)C(=O)N[C@@H](Cc1ccc(O)cc1)C(=O)O)c1ccccc1 [Compound (II) R3 =H, N-benzoylphenylalanyltyrosine] (Bz-Phe-Tyr-OH)
[1]; 200 mg/kg/day
  Relative therapeutic effect: 1.19
[2]
  LD50: > 4000 mg/kg

## CC(C)=CCCC(C)=CCCC(C)=CCCC(=O)OC/C=C(\C)CCC=C(C)C [Gefarnate, geranyl farnesylacetate, reference compound]
[1]; 200 mg/kg/day
  Relative therapeutic effect: 1.06
[3]; 200 mg/kg/day
  Relative therapeutic effect: 0.77

## NC(=O)CC[C@H](N)C(=O)O [Glutamine, glutamine, reference compound]
[1]; 200 mg/kg/day
  Relative therapeutic effect: 0.30
[1]; 1000 mg/kg/day
  Relative therapeutic effect: 1.00
[3]; 1000 mg/kg/day
  Relative therapeutic effect: 1.00

## COC(Cc1ccccc1)C(=O)N[C@H](CO)Cc1ccc(O)cc1 (stereo partly drawn) [N-(α -methoxy-β-phenylpropionyl)-tyrosinol]
[2]
  LD50: > 4000 mg/kg

## COc1ccc(C[C@@H](CO)NC(=O)OCc2ccc(OC)c(OC)c2)cc1 [O-methyl-N-(3,4-dimethoxybenzyloxycarbonyl)-tyrosinol]
[1]; 200 mg/kg/day
  Relative therapeutic effect: 0.98
[2]
  LD50: > 4000 mg/kg

## COc1ccc(C[C@@H](CO)NC(=O)OCc2ccccc2)cc1 [O-methyl-N-benzyloxycarbonyltyrosinol]
[1]; 200 mg/kg/day
  Relative therapeutic effect: 1.03
[2]
  LD50: > 4000 mg/kg

## N[C@@H](Cc1ccc(O)cc1)C(=O)O [Tyrosine, tyrosine]
[1]; 200 mg/kg/day
  Relative therapeutic effect: 0.37

## COc1ccc(COC(=O)N[C@H](CO)Cc2ccc(O)cc2)cc1 [drawing 11]
[1]; 200 mg/kg/day
  Relative therapeutic effect: 1.75
[2]
  LD50: > 4000 mg/kg

## COc1ccc(COC(=O)N[C@H](CO)Cc2ccc(O)cc2)cc1 [drawing 17]
[3]; 50 mg/kg/day
  Relative therapeutic effect: 7.72
